The values below come from ChEMBL document CHEMBL1151001, “Nonpeptide angiotensin II receptor antagonists: the discovery of DMP 581 and DMP 811” (Bioorg Med Chem Lett, 1994).

For data set [1], the species on record is Rattus norvegicus. Put plainly: Oral antihypertensive potency expressed as effective dose that lowers the mean arterial blood pressure by 30 mm Hg in renal hypertensive rats. In kind it is functional.
Data set [2] can be described thus: Oral bioavailability in dog (dosed as neat powder in hard gelatin capsule). Conditions: in vivo. In kind it is ADME, organism-based, Canis lupus familiaris.
Data set [3] is described as follows: Oral bioavailability. It counts as ADME, organism-based, Canis lupus familiaris. Particulars: dog, in vivo.
The subject of data set [4] is Rattus norvegicus. Put plainly: Antihypertensive potency expressed as effective dose (iv) that lowers the mean arterial blood pressure by 30 mm Hg in renal hypertensive rats. It counts as functional. Particulars: Artery.

Take `CCCc1nc(C(C)CC)c(C(=O)O)n1Cc1ccc(-c2ccccc2-c2nn[nH]n2)cc1` (configuration not stated): in data set [1], the ED30 turned out to be 0.46 mg/kg.
Still for that read-out and setting: in the case of `CCCc1nc(C)c(C(=O)O)n1Cc1ccc(-c2ccccc2-c2nn[nH]n2)cc1` it was 0.19 mg/kg; in that of `CCCc1nc(CCC)n(Cc2ccc(-c3ccccc3-c3nn[nH]n3)cc2)c1C(=O)O`, 0.63 mg/kg.
`CCCc1nc(C(C)(C)C)c(C(=O)O)n1Cc1ccc(-c2ccccc2-c2nn[nH]n2)cc1`: in data set [1], the ED30 amounted to 0.35 mg/kg.
For `CCCc1nc(CC)c(C=O)n1Cc1ccc(-c2ccccc2-c2nnn[nH]2)cc1`, the bioavailability (in general, the share of a dose that reaches the circulation, judged against a reference dose that is usually intravenous) in data set [2] was 70%; in data set [3], around 100%. The ED30 in data set [4] stood at 0.11 mg/kg; in data set [1] it was 0.027 mg/kg.
Regarding `CCCc1nc(CC)c(C(=O)OCc2oc(=O)oc2-c2ccccc2)n1Cc1ccc(-c2ccccc2-c2nn[nH]n2)cc1`, the ED30 in data set [1] was 0.3 mg/kg.
Same read-out and setting: in the case of `CCCc1nc(C(C)C)c(C=O)n1Cc1ccc(-c2ccccc2-c2nn[nH]n2)cc1` it was 0.13 mg/kg; in that of `CCCc1nc(C)c(C=O)n1Cc1ccc(-c2ccccc2-c2nn[nH]n2)cc1`, 0.1 mg/kg; in that of `CCCc1nc(CC)c(C(=O)OCOC(=O)C(C)(C)C)n1Cc1ccc(-c2ccccc2-c2nn[nH]n2)cc1`, 0.03 mg/kg.
As for `CCCCc1nc(Cl)c(C(=O)O)n1Cc1ccc(-c2ccccc2-c2nn[nH]n2)cc1` [CARBOXYLIC ACID METABOLITE], the ED30 came out at 0.038 mg/kg in data set [4] and 0.66 mg/kg in data set [1].
With `CCCc1nc(CC)c(C(=O)OC(C)OC(=O)OC)n1Cc1ccc(-c2ccccc2-c2nn[nH]n2)cc1` (configuration not stated), the ED30 in data set [1] was determined as 0.02 mg/kg.
Regarding `CCCc1nc(C(F)(F)C(F)(F)F)c(C(=O)O)n1Cc1ccc(-c2ccccc2-c2nnn[nH]2)cc1`, the bioavailability in data set [2] amounted to 12%. In addition, the ED30 in data set [4] is 0.042 mg/kg; in data set [1], 0.21 mg/kg.
In turn, `CCCc1nc(C(C)(C)C)c(C=O)n1Cc1ccc(-c2ccccc2-c2nn[nH]n2)cc1` had an ED30 in data set [1] of 0.048 mg/kg.
In the case of `CCCc1nc(CCC)n(Cc2ccc(-c3ccccc3-c3nn[nH]n3)cc2)c1C=O`, the ED30 in data set [1] stood at 0.3 mg/kg.
`CCCc1nc(CC)c(C(=O)OCc2oc(=O)oc2C(C)(C)C)n1Cc1ccc(-c2ccccc2-c2nn[nH]n2)cc1` showed an ED30 in data set [1] of 0.1 mg/kg.
On the same count and under the same terms, in the case of `CCCc1nc(CC)c(C(=O)OCOC(=O)OC(C)(C)C)n1Cc1ccc(-c2ccccc2-c2nn[nH]n2)cc1` it was 0.02 mg/kg; in that of `CCCc1nc(CC)c(C(=O)OCc2oc(=O)oc2C)n1Cc1ccc(-c2ccccc2-c2nn[nH]n2)cc1`, 0.1 mg/kg; in that of `CCCc1nc(C(C)C)c(C(=O)O)n1Cc1ccc(-c2ccccc2-c2nn[nH]n2)cc1`, 0.11 mg/kg.
Consider `CCCc1nc(CC)c(C(=O)OC(C)OC(=O)OC(C)(C)C)n1Cc1ccc(-c2ccccc2-c2nn[nH]n2)cc1` (configuration not stated), for which the ED30 in data set [1] came out at 0.3 mg/kg.
The molecule `CCCc1nc(CC(C)C)c(C(=O)O)n1Cc1ccc(-c2ccccc2-c2nn[nH]n2)cc1` gave an ED30 in data set [1] of 0.87 mg/kg.
Same read-out and setting: the value for `CCCCc1nc(CCC)n(Cc2ccc(-c3ccccc3-c3nn[nH]n3)cc2)c1C(=O)O` was 1.3 mg/kg; that for `CCCc1nc(C(C)CC)c(C=O)n1Cc1ccc(-c2ccccc2-c2nn[nH]n2)cc1` (configuration not stated) was 0.33 mg/kg; that for `CCCCc1nc(CCC)n(Cc2ccc(-c3ccccc3-c3nn[nH]n3)cc2)c1C=O` was 1 mg/kg.
`CCCc1nc(CC)c(C(=O)OCOC(=O)OC)n1Cc1ccc(-c2ccccc2-c2nn[nH]n2)cc1` had an ED30 in data set [1] of 0.03 mg/kg.
The same measure, in the same setting: the value for `CCCc1nc(CC(C)C)c(C=O)n1Cc1ccc(-c2ccccc2-c2nn[nH]n2)cc1` was 0.29 mg/kg; that for `CCCc1nc(CC)c(C(=O)OCOC(=O)C(C)C)n1Cc1ccc(-c2ccccc2-c2nn[nH]n2)cc1` was 0.03 mg/kg.
`CCCc1nc(CC)c(C(=O)O)n1Cc1ccc(-c2ccccc2-c2nnn[nH]2)cc1` returned a bioavailability in data set [3] of 15%. For the same molecule, the ED30 in data set [4] worked out at 0.005 mg/kg; in data set [1] it was 0.03 mg/kg.
In the case of `CCCCc1nc(Cl)c(CO)n1Cc1ccc(-c2ccccc2-c2nnn[nH]2)cc1` [LOSARTAN], the ED30 stood at 0.8 mg/kg in data set [4] and 0.59 mg/kg in data set [1].
